These results are taken from US9000154B2, “Rho kinase inhibitors” (Boehringer Ingelheim International GmbH, priority 2010, dated 2015).

A word on the IC50: it is the concentration needed to halve the response being measured.

Test [1] deals with T1, ROCKII (1-543) (Homo sapiens, UniProt O75116). In words: IMAP Assay (fluorescence polarization, FAM S6 peptide). The conditions noted are these: IMAP FP, 1 nM ROCKII (1-543), 100 μM ATP; read-out: Assay 2 IC50. It counts as biochemical. The arrangement: 3 nM ROCKII (1-543) diluted in kinase reaction buffer. The method, then:
This assay is performed using FAM S6 substrate peptide (Catalogue #R7184) and IMAP FP Screening Express Kit detection reagents from Molecular Devices (Sunnyvale, Calif.) in IMAP kinase reaction buffer (Tris-HCl, pH 7.2, 10 mM MgCl2, 0.05% NaN3, 0.1% phosphate-free BSA) containing 1 mM DTT. Test compounds dissolved in neat DMSO at 0.3 mg/mL are serially diluted 1 to 3 for concentration response in 100% DMSO. The DMSO serial dilutions are further diluted 33.33-fold in kinase reaction buffer, and 10 μL of this buffer dilution is transferred to Corning black 96-well half area NBS plates for a final top concentration of 3 μg/mL in 1% DMSO. 10 μL aliquot of 3 nM ROCKII (1-543) diluted in kinase reaction buffer is added to each assay well for a final concentration of 1 nM kinase. 10 μL of a mixture of 600 nM FAM S6 peptide and 300 μM ATP diluted in kinase reaction buffer is added to each well for a final concentration of 200 nM peptide and 100 μM ATP. The kinase reaction mixture is incubated for 60 minutes at room temperature. Positive controls are reaction mixtures containing no test compound and negative controls (blanks) are reaction mixtures containing no kinase. The kinase reaction is stopped by addition of 60 μL IMAP progressive binding reagent (Catalog #R7284) diluted 400-fold in 1× Binding buffer A. After 30 min of incubation at room temperature, the plates are read for fluorescence polarization on Analyst Plate Reader using Ex 485 nm, Em 530 nm, and FL 505 dichroic mirror. The mP signals are converted to percent of control (POC) values using the formula: POC=100*(Signal−BCTRL)÷(PCTRL−BCTRL)
Where Signal is the test well signal, BCTRL is the average of background (negative control) well signals on the plate and PCTRL is the average of positive control well signals on the plate. For the concentration-responsive compounds, POC as a function of test compound concentration is fitted to a 4-parameter logistic equation of the form: Y=A+(B−A)/[1+(x/C)D]
Where A, B, C, and D are fitted parameters (parameter B is fixed at zero POC), and x and y are the independent and dependent variables, respectively. The IC50 is determined as the inflection point parameter, C.
Background: In fluorescence polarisation assays a small probe gives low polarisation when free and higher when bound to something large.
Target sequence in this assay (O75116 1-543, species assumed): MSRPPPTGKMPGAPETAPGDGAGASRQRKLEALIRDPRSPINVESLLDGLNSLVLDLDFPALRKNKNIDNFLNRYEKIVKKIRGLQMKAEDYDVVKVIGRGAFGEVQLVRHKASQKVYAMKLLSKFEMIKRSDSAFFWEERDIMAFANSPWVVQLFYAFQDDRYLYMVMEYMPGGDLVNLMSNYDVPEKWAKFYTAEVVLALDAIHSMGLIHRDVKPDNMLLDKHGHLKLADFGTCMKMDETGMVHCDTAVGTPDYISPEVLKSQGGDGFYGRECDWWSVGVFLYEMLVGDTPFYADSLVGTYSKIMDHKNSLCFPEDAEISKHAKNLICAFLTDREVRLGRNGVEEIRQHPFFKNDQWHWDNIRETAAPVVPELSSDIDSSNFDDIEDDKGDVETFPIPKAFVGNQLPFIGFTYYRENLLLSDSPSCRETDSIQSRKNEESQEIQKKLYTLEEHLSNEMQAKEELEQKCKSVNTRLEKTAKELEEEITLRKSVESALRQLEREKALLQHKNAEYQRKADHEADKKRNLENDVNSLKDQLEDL

Test [2] deals with T1, ROCKII (1-543). The experiment in a line: Luciferin-Luciferase Assay (PKLight ATP detection). Type of test: biochemical. The arrangement: ROCKII (1-543) (62,408 Da) was diluted in assay buffer. The conditions noted are these: 7.5 nM ROCKII (1-543), 750 nM ATP. The method, then: 1. Luciferin-Luciferase Assay
The activity of ROCKII (1-543) kinase was measured utilizing Cambrex PKLight ATP Detection Reagent, a homogeneous assay technology using luciferin-luciferase to quantify residual ATP. The assay was performed in 384-well low-volume, white, non-binding surface microtiter plates (Corning). The assay buffer was 25 mM HEPES, pH 7.5, 10 mM MgCl2, 50 mM KCl, 0.2% BSA, 0.01% CHAPS, 100 μM Na3VO4 and 0.5 mM DTT. Test compounds, dissolved in neat DMSO at 500 μg/mL, were serially diluted for dose response for a final starting concentration of 3 μg/mL in 1% DMSO of assay buffer. ROCKII (1-543) (62,408 Da) was diluted in assay buffer to a final concentration of 7.5 nM in a total volume of 15 μL. Positive controls were reaction mixtures containing no test compound; negative controls (blanks) were reaction mixtures containing no kinase. After 15 minutes of pre-incubation of the test compounds with the kinase, a mixture of ATP and peptide substrate (AKRRRLSSLRA) in assay buffer was added to each well for a final concentration of 750 nM ATP and 500 nM peptide, respectively. After 90 minutes of incubation of the kinase reaction at 28° C. temperature, 10 μL of PKLight ATP Detection Reagent (warmed to room temperature previously) was added to each well. The assay plate was incubated at room temperature for additional 15 minutes and then read on an Analyst in luminescence mode. Dose-response experiments for each of the test compounds were conducted in quadruplet. IC50 values of test compounds represent 50% response of the positive control from the dose-response curve.
Target sequence in this assay (O75116 1-543): as the sequence (O75116 1-543, species assumed) above

Where a name gives a salt, the structure may show the parent alone.

Regarding `CN(CCC#N)[C@H]1CCc2nc(NC(=O)c3cccc(Cn4cc(-c5ccc(C#N)cc5)nn4)c3)sc2C1` [Compound 32, N-{(S)-6-[(2-Cyano-ethyl)-methyl-amino]-4,5,6,7-tetrahydro-benzothiazol-2-yl}-3-[4-(4-cyano-phenyl)-[1,2,3]triazol-1-ylmethyl]-benzamide], the figures for the IC50 on ROCKII (1-543) [1] and against ROCKII (1-543) [2] were 2 nM and 2.9 nM, respectively.
As for `N#Cc1ccc(N2CCN(Cc3cccc(C(=O)Nc4nc5c(s4)C[C@@H](N4CCOCC4)CC5)c3)C2=O)cc1` [Compound 6, 3-[3-(4-Cyano-phenyl)-2-oxo-imidazolidin-1-ylmethyl]-N—((S)-6-morpholin-4-yl-4,5,6,7-tetrahydro-benzothiazol-2-yl)-benzamide], the IC50 amounted to 1.3 nM at ROCKII (1-543) [1] and 2 nM on ROCKII (1-543) [2].
The like results for `C[C@@H]1CN(C2CCc3nc(NC(=O)c4cccc(Cn5cc(-c6ccc(C#N)cc6)nn5)c4)sc3C2)C[C@H](C)O1` (stereo partly drawn) [Compound 27, 3-[4-(4-Cyano-phenyl)-[1,2,3]triazol-1-ylmethyl]-N-[6-((2S,6R)-2,6-dimethyl-morpholin-4-yl)-4,5,6,7-tetrahydro-benzothiazol-2-yl]-benzamide] were, in that order, 3.9 nM and 3.1 nM.
On to `CN(CCC(F)(F)F)[C@H]1CCc2nc(NC(=O)c3cccc(Cn4cc(-c5ccc(C#N)cc5)cn4)c3)sc2C1` [Compound 30, 3-[4-(4-Cyano-phenyl)-pyrazol-1-ylmethyl]-N-{(S)-6-[methyl-(3,3,3-trifluoro-propyl)-amino]-4,5,6,7-tetrahydro-benzothiazol-2-yl}-benzamide], for which the half-inhibitory concentration (IC50) was determined as 7.3 nM at ROCKII (1-543) [1] and 2.1 nM against ROCKII (1-543) [2].
The matching figures for `N#Cc1ccc(-c2nnc(Cc3cccc(C(=O)Nc4nc5c(s4)C[C@@H](N4CCOCC4)CC5)c3)s2)cc1` [Compound 56, 3-[5-(4-Cyano-phenyl)-1,3,4-thiadiazol-2-ylmethyl]-N—((S)-6-morpholin-4-yl-4,5,6,7-tetrahydro-benzothiazol-2-yl)-benzamide]: 4 nM and 2.5 nM.
The like results for `N#Cc1ccc(-c2cn(Cc3cccc(C(=O)Nc4nc5c(s4)CC(N4CCC(F)CC4)CC5)c3)nn2)cc1` (centres unmarked) [Compound 42, 3-[4-(4-Cyano-phenyl)-1,2,3-triazol-1-ylmethyl]-N-[6-(4-fluoro-piperidin-1-yl)-4,5,6,7-tetrahydro-benzothiazol-2-yl]-benzamide] were, in that order, 1.1 nM and 3.4 nM.
In the case of `CN1CCc2nc(NC(=O)c3cccc(Cn4cc(-c5ccc(C#N)cc5)nn4)c3)sc2C1` [Compound 2, 3-[4-(4-Cyano-phenyl)-[1,2,3]triazol-1-ylmethyl]-N-(5-methyl-4,5,6,7-tetrahydro-thiazolo[5,4-c]pyridin-2-yl)-benzamide], the IC50 on ROCKII (1-543) [1] worked out at 11 nM; against ROCKII (1-543) [2], 2.8 nM.
The matching figures for `N#Cc1ccc(-c2cnn(Cc3cccc(C(=O)Nc4nc5c(s4)CC(N4CCC(F)CC4)CC5)c3)c2)cc1` (centres unmarked) [Compound 18, 3-[4-(4-Cyano-phenyl)-pyrazol-1-ylmethyl]-N-[6-(4-fluoro-piperidin-1-yl)-4,5,6,7-tetrahydro-benzothiazol-2-yl]-benzamide trifluoroacetate]: 0.66 nM and 2.2 nM.
For the compound `N#Cc1ccc(-c2nnc(Cc3cccc(C(=O)Nc4nc5c(s4)C[C@@H](N4CCOCC4)CC5)c3)o2)cc1` [Compound 40, 3-[5-(4-Cyano-phenyl)-1,3,4-oxadiazol-2-ylmethyl]-N—((S)-6-morpholin-4-yl-4,5,6,7-tetrahydro-benzothiazol-2-yl)-benzamide], the values for the IC50 on ROCKII (1-543) [1] and against ROCKII (1-543) [2] were 12 nM and 3.2 nM, respectively.
The matching figures for `N#Cc1ccc(-c2cn(Cc3cccc(C(=O)Nc4nc5c(s4)C[C@@H](NCCC(F)(F)F)CC5)c3)nn2)cc1` [Compound 22, 3-[4-(4-Cyano-phenyl)-[1,2,3]triazol-1-ylmethyl]-N—[(S)-6-(3,3,3-trifluoro-propylamino)-4,5,6,7-tetrahydro-benzothiazol-2-yl]-benzamide]: 1.1 nM and 2.2 nM.
